According to US5591602A (priority 1993, dated 1997):

Assays:
ε receptors = test: inhibition of cAMP formation in BHK cells expressing ε receptors; format: cell-based, human
[1] = test system: all known opioid receptor subtypes; conditions: cited from earlier work
ε opioid receptor = target: T1, ε opioid receptor (Homo sapiens, UniProt P48145); test: ligand affinity/interaction profile of the cloned receptor; format: binding
T1 construct: a 2 kb fragment was removed from the 5' untranslated region of the gene and the shortened insert (2.5 kb) was subcloned; expressed in transfected cells; host or cells: COS and BHK cells (pRC/CMV vector)
T1 sequence (P48145 1-328 S296T): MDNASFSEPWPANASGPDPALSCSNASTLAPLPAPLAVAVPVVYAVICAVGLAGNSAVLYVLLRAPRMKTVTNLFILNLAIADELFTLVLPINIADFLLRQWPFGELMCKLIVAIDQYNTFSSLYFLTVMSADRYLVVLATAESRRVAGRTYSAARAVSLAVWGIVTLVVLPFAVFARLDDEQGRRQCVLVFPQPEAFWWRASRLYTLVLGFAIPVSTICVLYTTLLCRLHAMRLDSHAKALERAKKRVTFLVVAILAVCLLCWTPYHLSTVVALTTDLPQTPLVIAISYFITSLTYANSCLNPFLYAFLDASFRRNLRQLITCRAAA

[2] = test system: U-69, 593 insensitive benzoinorphan site; conditions: Nock et al., 1993; cited from earlier work
μ receptors = conditions: cited from earlier work
enkephalins = conditions: peripheral administration; Bertolucci et al., 1992; cited from earlier work
κ and ε sites = conditions: brain; Chang et al., 1981; cited from earlier work

CN1CC[C@]23CCCC[C@H]2[C@H]1Cc1ccc(O)cc13 [levorphanol]
inhibition of cAMP formation (ε receptors): inhibition of cAMP formation

CCC12CCN(CC3(O)CC3)C(Cc3ccc(O)cc31)C2(C)C (stereo not shown) [[^3 H]bremazocine]
affinity for all known opioid receptor subtypes (in words) [1]: high affinity

β-endorphin: endogenous opioid peptide with high affinity for the ε receptor
affinity of the receptor for the ligand (in words) (ε opioid receptor): high affinity | affinity for the U-69,593 insensitive site (in words) [2]: high affinity

CN1CC[C@]23c4c5ccc(O)c4O[C@H]2[C@@H](O)C=C[C@H]3[C@H]1C5 [Morphine]
interaction with μ receptors (in words) (μ receptors): interacts principally with μ receptors | release of enkephalins (in words) (enkephalins): induces release of enkephalins

CC[C@]12CCN(CC3CC3)[C@H](C(=O)c3ccc(O)cc31)[C@@H]2C [ethylketocyclazocine]
labelling of opioid binding sites (in words) (κ and ε sites): label two populations of non-μ, non-δ opioid binding sites
